Measurements from US20070148184A1, “Survivin-derived peptides and use thereof” (priority 2003, published 2007).
Several values for one entry are separate records, joined by “and”; a condition that tells them apart may be missing. Identical values can stand only once. Entries after “also recorded” stand apart in the source; their conditions may differ. Residues, ends and D or L forms follow the SMILES beside them. No end group written: not given here.

Target: T1, HLA-A2 (Homo sapiens, UniProt P04439, D140Y/D185E/D98H/E176V/E277Q/G131W/G231S/I119V/I121R/I166T/I218V/L300P/L318F/N151K/N90K/P208A/P217A/Q86G/Q94H/R138H/R169H/T345S)
T1 construct: stabilization of the class I molecules after loading of peptide to the peptide transporter deficient cell line T2; endogenous in cells; host or cells: T2 (TAP-deficient human hybrid cell line), metabolically labelled lysate
Assay: Assembly assay for peptide binding to class I MHC, HLA-A2
Conditions: Example 1, Table 1
Experimental: This assembly assay is carried out as described previously (12,13), and it is based on stabilisation of the HLA molecule after loading of peptide to the peptide transporter deficient cell line T2. Subsequently, correctly folded stable HLA heavy chains are immunoprecipitated using conformation dependent antibodies and the peptide binding is quantitated.
Assembly assays for binding of the synthetic peptides to class I MHC molecules metabolically labeled with [35S]-methionine were carried out as described (12,13). The assembly assay is based on stabilization of the class I molecules after loading of peptide to the peptide transporter deficient cell line T2. Subsequently, correctly folded stable MHC heavy chains are immunoprecipitated using conformation-dependent antibodies. After IEF electrophoresis, gels were exposed to phosphoImager screens, and peptide binding was quantified using the Imagequant PhosphorImager program (Molecular Dynamics, Sunnyvale, Calif.).
The binding affinity of synthetic peptides (Invitrogen, Carlsbad, Calif., USA) to HLA-A1, -A2, A3, or -A11 molecules metabolically labeled with [^35S]-methionine was measured in the assembly assay, as described previously (12). The assay is based on peptide-mediated stabilization of empty HLA molecules released upon cell lysis, from the TAP-deficient cell lines. […] MHC heavy chain bands were quantified using the ImageGauge Phosphorimager program (FUJI photo film Co., Carrollton, Tex., USA). The intensity of the band is proportional to the amount of peptide-bound class I MHC complex recovered during the assay. Subsequently, the extent of stabilization of the HLA-molecule is directly related to the binding affinity of the added peptide. The peptide concentration used to analyze the recovery of the HLA-molecules was 40, 4, 0.4, 0.04 μM for HLA-A1 and HLA-A11, and 100, 10, 1, 0.1, 0.01 μM for HLA-A2 and HLA-A3. The C50 value was subsequently calculated for each peptide as the peptide concentration sufficient for half maximal stabilization.

Compound	C50 (peptide concentration for half maximal binding to HLA-A2)
ETAKKVRRAI [Sur10]	did not bind; also recorded: Not binding
SVKKQFEEL [Sur5]	did not bind; also recorded: Not binding
STFKNWPFL [Sur4]	did not bind; also recorded: Not binding
TAKKVRRAI [Sur7]	did not bind; also recorded: Not binding
RAIEQLAAM [Sur2]	did not bind; also recorded: Not binding

Same assay, conditions: Example 1, Table 1; read-out: C50 (peptide concentration for half maximal binding to HLA-A2)

Compound	EC50 [µM]
CC(C)C[C@H](NC(=O)[C@H](CCCCN)NC(=O)[C@H](CC(C)C)NC(=O)[C@@H](N)Cc1ccccc1)C(=O)N[C@@H](CC(=O)O)C(=O)N[C@@H](CCCNC(=N)N)C(=O)N[C@@H](CCC(=O)O)C(=O)N[C@@H](CCCNC(=N)N)C(=O)N[C@@H](C)C(=O)O [Sur6]	30
CC(C)C[C@H](NC(=O)[C@H](Cc1ccccc1)NC(=O)[C@@H]1CCCN1C(=O)[C@H](CCC(N)=O)NC(=O)[C@H](Cc1c[nH]c2ccccc12)NC(=O)[C@H](C)NC(=O)[C@@H]1CCCN1C(=O)[C@@H]1CCCN1C(=O)[C@H](CC(C)C)NC(=O)[C@@H](N)[C@@H](C)O)C(=O)O [Sur8]	30
CC(C)C[C@H](NC(=O)[C@H](CCCCN)NC(=O)[C@H](CC(C)C)NC(=O)[C@H](Cc1ccccc1)NC(=O)[C@H](CCC(=O)O)NC(=O)CNC(=O)[C@H](CC(C)C)NC(=O)[C@@H](NC(=O)[C@@H](N)CC(C)C)[C@@H](C)O)C(=O)O [Sur1]	> 100
CC(C)C[C@H](NC(=O)[C@H](CCCCN)NC(=O)[C@H](CC(C)C)NC(=O)[C@H](Cc1ccccc1)NC(=O)[C@H](CCC(=O)O)NC(=O)CNC(=O)[C@H](CC(C)C)NC(=O)[C@@H](NC(=O)[C@H](CC(C)C)NC(=O)[C@@H](N)CCC(=O)O)[C@@H](C)O)C(=O)O [Sur9]	10
CC[C@H](C)[C@H](NC(=O)[C@H](C)NC(=O)[C@H](CCCNC(=N)N)NC(=O)[C@H](CCCNC(=N)N)NC(=O)[C@@H](NC(=O)[C@@H](N)CCCCN)C(C)C)C(=O)N[C@@H](CCC(=O)O)C(=O)N[C@@H](CCC(N)=O)C(=O)N[C@@H](CC(C)C)C(=O)O [Sur3]	> 100

Same assay, conditions: Example 4

Compound	C50 (half maximal recovery of HLA-A2)
KLDRERAKNKI [Sur103-113]	did not bind
CC(C)C[C@H](NC(=O)[C@H](CCC(=O)O)NC(=O)[C@H](CCCCN)NC(=O)[C@H](Cc1ccccc1)NC(=O)[C@H](CS)NC(=O)[C@H](Cc1ccccc1)NC(=O)[C@H](Cc1ccccc1)NC(=O)[C@H](CS)NC(=O)[C@H](CCC(N)=O)NC(=O)[C@H](C)NC(=O)[C@@H](N)CC(C)C)C(=O)O [Sur54-64] (H-LAQCFFCFKEL-OH; N-terminus and C-terminus assumed)	did not bind
PTLPPAWQPFL [Sur4-14]	did not bind
SVKKQFEELTL [Sur88-98]	did not bind

Same assay, conditions: Example 4; read-out: C50 (half maximal recovery of HLA-A2)

Compound	EC50 [µM]
CC(C)C[C@H](NC(=O)[C@H](CCCCN)NC(=O)[C@H](CC(C)C)NC(=O)[C@H](Cc1ccccc1)NC(=O)[C@H](CCC(=O)O)NC(=O)CNC(=O)[C@H](CC(C)C)NC(=O)[C@@H](NC(=O)[C@@H](N)CC(C)C)[C@@H](C)O)C(=O)O [Sur1]	> 100

Same assay, conditions: Table 4, HLA-A2, 11-mers and controls; read-out: C50

Compound	EC50 [µM]
KLDRERAKNKI [Sur103-113]	> 100
PTLPPAWQPFL [Sur4-14]	> 100
SVKKQFEELTL [Sur88-98]	> 100

Target: HLA-A3 (Homo sapiens, UniProt P04439)
Assay: Assembly assay, HLA-A3
Assay type: binding
Conditions: not given
Experimental: The binding affinity of synthetic peptides (Invitrogen, Carlsbad, Calif., USA) to HLA-A1, -A2, A3, or -A11 molecules metabolically labeled with [^35S]-methionine was measured in the assembly assay, as described previously (12). The assay is based on peptide-mediated stabilization of empty HLA molecules released upon cell lysis, from the TAP-deficient cell lines. Stably folded HLA-molecules were immune-precipitated using the HLA class I-specific, conformation-dependent mAb W6/32, and separated by isoelectric focusing (IEF) gel electrophoresis. MHC heavy chain bands were quantified using the ImageGauge Phosphorimager program (FUJI photo film Co., Carrollton, Tex., USA). The intensity of the band is proportional to the amount of peptide-bound class I MHC complex recovered during the assay. Subsequently, the extent of stabilization of the HLA-molecule is directly related to the binding affinity of the added peptide. The peptide concentration used to analyze the recovery of the HLA-molecules was 40, 4, 0.4, 0.04 μM for HLA-A1 and HLA-A11, and 100, 10, 1, 0.1, 0.01 μM for HLA-A2 and HLA-A3. The C50 value was subsequently calculated for each peptide as the peptide concentration sufficient for half maximal stabilization.

Compound	binding to HLA-A3, in words
CC(C)C[C@H](NC(=O)[C@@H](N)CC(=O)O)C(=O)N[C@@H](C)C(=O)N[C@@H](CCC(N)=O)C(=O)N[C@@H](CS)C(=O)N[C@@H](Cc1ccccc1)C(=O)N[C@@H](Cc1ccccc1)C(=O)N[C@@H](CS)C(=O)N[C@@H](CCCCN)C(=O)O [Sur53K9] (H-DLAQCFFCK-OH; N-terminus and C-terminus assumed)	no detectable effect
FLKDHRISTK [Sur13K9]	no detectable effect
CC[C@H](C)[C@H](N)C(=O)N[C@@H](CC(C)C)C(=O)N[C@@H](CCCCN)C(=O)N[C@@H](CCC(=O)O)C(=O)N[C@H](C(=O)N[C@@H](CC(N)=O)C(=O)N[C@@H](CC(N)=O)C(=O)N[C@@H](CCCCN)C(=O)N[C@@H](CCCCN)C(=O)N[C@@H](CCCCN)C(=O)O)[C@@H](C)O [Sur113L2]	only bound weakly

Same assay, conditions: Table 4, HLA-A3; read-out: C50

Compound	EC50
CAFLSVKKQF [Sur 84-93]	> 100 µM
FLKDHRISTK [Sur13K9]	> 100 µM
RITREEHKK [Sur2b-A3-1]	> 100 µM
CC[C@H](C)[C@H](NC(=O)[C@@H](N)[C@@H](C)O)C(=O)N[C@@H](CCCNC(=N)N)C(=O)N[C@@H](CCCNC(=N)N)C(=O)N[C@@H](CCCCN)C(=O)N[C@@H](CC(N)=O)C(=O)N[C@@H](CC(C)C)C(=O)N[C@@H](CCCNC(=N)N)C(=O)N[C@@H](CCCCN)C(=O)O [SurEx3-A3-1]	0.5 µM
IAKETNNKKK [Sur 113-122]	> 100 µM
CC[C@H](C)[C@H](N)C(=O)N[C@@H](CC(C)C)C(=O)N[C@@H](CCCCN)C(=O)N[C@@H](CCC(=O)O)C(=O)N[C@H](C(=O)N[C@@H](CC(N)=O)C(=O)N[C@@H](CC(N)=O)C(=O)N[C@@H](CCCCN)C(=O)N[C@@H](CCCCN)C(=O)N[C@@H](CCCCN)C(=O)O)[C@@H](C)O [Sur113L2]	> 100 µM
FLKDHRISTF [Sur 13-22]	> 100 µM
RISTFKNWPF [Sur 18-27]	> 100 µM
TLPPAWQPF [Sur 5-13]	> 100 µM
CC[C@H](C)[C@H](N)C(=O)N[C@@H](CC(C)C)C(=O)N[C@@H](CCCNC(=N)N)C(=O)NCC(=O)N[C@@H](CO)C(=O)N[C@H](C(=O)N[C@@H](C)C(=O)N[C@@H](Cc1c[nH]cn1)C(=O)N[C@@H](CCCCN)C(=O)O)C(C)C [C3, reference compound]	0.1 to 0.3 µM and 0.1 µM
FLKLDRERAK [Sur 101-110]	> 100 µM
PTIRRKNLRK [SurEx3-A3-2]	> 100 µM
KLDRERAKNK [Sur 103-112]	> 100 µM

System: peptide epitope-specific interferon-γ releasing effector cells
Assay: IFN-γ ELISPOT, Example 4 (PBL or TIL from cancer patients)
Assay type: cell-based, human
Conditions: HLA-A1; ten melanoma patients; data not shown
Experimental: To extend the sensitivity of the ELISPOT assay, PBL were stimulated once in vitro prior to analysis. At day 0, PBL or crushed lymph nodes were thawed and plated as 2×10^6 cells in 2 ml/well in 24-well plates (Nunc, Roskilde, Denmark) in x-vivo medium (Bio Whittaker, Walkersville, Md.), […] heat-inactivated human serum, and 2 mM of L-glutamine in the presence of 10 μM of peptide. Two days later 20 IU/ml recombinant interleukin-2 (IL-2) (Chiron, Ratingen, Germany) was added to the cultures. The cultured cells were tested for reactivity in the ELISPOT on day 10.
The ELISPOT assay was used to quantify peptide epitope-specific interferon-γ releasing effector cells as previously described (16). Briefly, nitrocellulose bottomed 96-well plates (MultiScreen MAIP N45, Millipore, Hedehusene, Denmark) were coated with anti-IFN-γ antibody (1-D1K, Mabtech, Nacka, Sweden). The wells were washed, blocked by X-vivo medium, and the cells were added in duplicates at different cell concentrations. The peptides were then added to each well and the plates were incubated overnight. The following day, media was discarded and the wells were washed prior to addition of biotinylated secondary antibody (7-B6-1-Biotin, Mabtech). The plates were incubated for 2 hours, washed, and avidin-alkaline phosphatase conjugate (Calbiochem, Life Technologies, Inc. San Diego, Calif., USA) was added to each well. The plates were incubated at room temperature for one hour, washed, and the enzyme substrate NBT/BCIP (DakoCytomation Norden A/S, Glostrup, Denmark) was added to each well and incubated at RT for 5-10 min. Upon the emergence of dark purple spots, the reaction was terminated by washing with tap-water. The spots were counted using the ImmunoSpot® Series 2.0 Analyzer (CTL Analyzers, LLC, Cleveland, US) and the peptide specific CTL frequency could be calculated from the numbers of spot-forming cells. All assays were performed in duplicates for each peptide antigen.

Compound	ELISPOT response
PTENEPDLAQ [Sur47-56]	no peptide-specific responses were detected

Same assay, conditions: HLA-A2; ten cancer patients analyzed

Compound	patients with CTL response in PBL
CC(C)C[C@H](NC(=O)[C@H](CCC(=O)O)NC(=O)[C@H](CCC(=O)O)NC(=O)[C@H](Cc1ccccc1)NC(=O)[C@H](CCC(N)=O)NC(=O)[C@H](CCCCN)NC(=O)[C@H](CCCCN)NC(=O)[C@@H](NC(=O)[C@H](CO)NC(=O)[C@H](CC(C)C)NC(=O)[C@@H](N)Cc1ccccc1)C(C)C)C(=O)O [Sur86-96]	no responses could be detected
